Assay: Photochromic properties of cast polymer (2 mm thick) under xenon lamp irradiation for 120 seconds
Format: physicochemical
Details: single chromene compound 0.04% by weight in polymer, 20° C.; Table 5
Experimental: 0.04% by weight of the chromene compound obtained in Example 1 was added to 70 parts of 4G, 15 parts of 3G, 10 parts of GMA, 5 parts of HEMA and 1 part of perbutyl ND, and was mixed together to a sufficient degree. The mixture solution was poured into a mold constituted by a glass plate and a gasket of an ethylene/vinyl acetate copolymer, and was cast-polymerized. By using an air furnace, the polymerization was conducted in a manner that the temperature was gradually raised from 30° C. to 90° C. over a period of 18 hours, and was held at 90° C. for 2 hours. After the polymerization, the polymer was taken out from the glass mold.
By using a xenon lamp, L-2480 (300 W) SHL-100, manufactured by Hamamatsu Photonics Co., the obtained polymer (2 mm thick) was irradiated with a beam of an intensity of 365 nm=2.4 mW/cm^2 and 245 nm=24 μW/cm^2 on the surface of the polymer for 120 seconds through an aero-mass filter (manufactured by Corning Co.) at 20° C.±1° C. to develop color and to measure the photochromic properties which were expressed in the following manner.
1 Maximum absorption wavelength (λmax): λmax of the polymer after it has developed color was found by using a spectrophotometer (instantaneous multi-channel photo-detector, MCPD1000) manufactured by Otsuka Denshi Kogyo Co.
2 Initial color ( ε(0)): Absorbency of the polymer in a non-irradiated state at a wavelength same as the maximum absorption wavelength of when it is irradiated with light.
3 Color density (-)=ε(120)-ε(0). ε(120): Absorbency of the polymer at a maximum absorption wavelength after it was irradiated for 120 seconds under the above-mentioned conditions.
4 Color-developing sensitivity (-/min.)=Saturated color density/xenon irradiation time.
Rate of increase in the color density per a unit time until the color density is saturated.
5 Color fading rate [t1/2 (min.)]=time required until the absorbency of the polymer drops down to one-half of [ε(120)-ε(0)] after irradiated for 120 seconds.
(§1) Photochromic polymers were prepared in the same manner as in Example 42 but using the chromene compounds obtained in Examples 2 to 41, and their maximum absorption wavelengths, color densities, fading rates, changes in the coloring degrees and durabilitys were measured.
(§2) For the purpose of comparison, furthermore, the compounds represented by the following formulas (a), (b), (c), (d), (e) and (f) were measured for their maximum absorption wavelengths, color densities, fading rates, changes in the coloring degrees and durabilitys.
(§3) The procedure was carried out in the same manner as in Example 42 but using 100 parts of AC1 and 133 parts of BC1, the sum of the amounts of AC1 and BC1 being 0.04% by weight. The obtained photochromic polymer was measured for its maximum absorption wavelength, initial color, color density, color-developing sensitivity, fading rate, durability and change in the coloring degree.
(§4) The procedure was carried out in the same manner as in Example 83 but using the known chromene compounds shown in Table 6 instead of the chromene compound used in Example 83. […]

Compound	Maximum absorption wavelength λmax [nm]	Fading rate t1/2 [min]
COc1ccc(C2(c3ccc(OC)c(F)c3)C=Cc3c(C)cc4ccccc4c3O2)cc1F [Compound 27]	496	7.3
CCOc1ccc(C2(c3ccc(OCC)cc3)C=Cc3c(C)cc4ccccc4c3O2)cc1 [Compound 29]	504	5.8
COc1ccc(C2(c3ccco3)C=Cc3c(C)cc4ccccc4c3O2)cc1F (centres unmarked) [Compound 31]	506	7.0
COc1ccc(C2(c3ccc(OC)cc3)C=Cc3c(C)cc4c(OC)cccc4c3O2)cc1 [Compound 33]	520	5.5
CCCc1cc2ccccc2c2c1C=CC(c1ccc(OC)cc1)(c1ccc(OC)cc1)O2 [Compound 35]	498	4.5
COc1ccc(C2(c3ccc(OC)cc3)C=Cc3c(C)cc4ccc(C)cc4c3O2)cc1 [Compound 36]	510	6.0
COc1ccc(C2(c3ccc(OC)cc3)C=Cc3c(C)cc4cc(-c5ccccc5)ccc4c3O2)cc1 [Compound 37]	512	7.2
CCCCc1cc2cccc(Br)c2c2c1C=CC(c1ccc(OC)c(F)c1)(c1ccc(OC)c(F)c1)O2 [Compound 38]	482	4.8
CCOc1ccc(C2(c3ccc(OC)cc3)C=Cc3c(CC)cc4c(Cc5ccccc5)cccc4c3O2)cc1 (centres unmarked) [Compound 39]	524	5.8

The next lines start with results.

Maximum absorption wavelength λmax [nm]	Compound	Fading rate t1/2 [min]
502	CCc1cc2ccccc2c2c1C=CC(c1ccc(OC)cc1)(c1ccc(OC)cc1)O2 [Compound 28]	5.5
490	COc1ccc(C2(c3ccc(OC(F)(F)F)cc3)C=Cc3c(C)cc4ccccc4c3O2)cc1 (centres unmarked) [Compound 30]	8.5
512	COc1ccc(C2(c3cccs3)C=Cc3c(C)cc4ccccc4c3O2)cc1 (centres unmarked) [Compound 32]	6.5
502	COc1ccc(C2(c3ccc(OC)c(F)c3)C=Cc3c(C)cc4ccccc4c3O2)cc1 (centres unmarked) [Compound 34]	6.5

Same assay, conditions: single chromene compound 0.04% by weight in polymer, 120 seconds, 20° C.; Table 5

Compound	Color density ε(120)-ε(0)
COc1ccc(C2(c3ccc(OC)c(F)c3)C=Cc3c(C)cc4ccccc4c3O2)cc1F [Compound 27]	1.1
CCOc1ccc(C2(c3ccc(OCC)cc3)C=Cc3c(C)cc4ccccc4c3O2)cc1 [Compound 29]	1.2
COc1ccc(C2(c3ccco3)C=Cc3c(C)cc4ccccc4c3O2)cc1F (centres unmarked) [Compound 31]	1.1
COc1ccc(C2(c3ccc(OC)cc3)C=Cc3c(C)cc4c(OC)cccc4c3O2)cc1 [Compound 33]	1.3
CCCc1cc2ccccc2c2c1C=CC(c1ccc(OC)cc1)(c1ccc(OC)cc1)O2 [Compound 35]	0.9
COc1ccc(C2(c3ccc(OC)cc3)C=Cc3c(C)cc4ccc(C)cc4c3O2)cc1 [Compound 36]	1.1
COc1ccc(C2(c3ccc(OC)cc3)C=Cc3c(C)cc4cc(-c5ccccc5)ccc4c3O2)cc1 [Compound 37]	1.3
CCCCc1cc2cccc(Br)c2c2c1C=CC(c1ccc(OC)c(F)c1)(c1ccc(OC)c(F)c1)O2 [Compound 38]	0.8
CCOc1ccc(C2(c3ccc(OC)cc3)C=Cc3c(CC)cc4c(Cc5ccccc5)cccc4c3O2)cc1 (centres unmarked) [Compound 39]	1.0

Next, values leading:

Color density ε(120)-ε(0)	Compound
1.0	CCc1cc2ccccc2c2c1C=CC(c1ccc(OC)cc1)(c1ccc(OC)cc1)O2 [Compound 28]
1.1	COc1ccc(C2(c3ccc(OC(F)(F)F)cc3)C=Cc3c(C)cc4ccccc4c3O2)cc1 (centres unmarked) [Compound 30]
1.0	COc1ccc(C2(c3cccs3)C=Cc3c(C)cc4ccccc4c3O2)cc1 (centres unmarked) [Compound 32]
1.1	COc1ccc(C2(c3ccc(OC)c(F)c3)C=Cc3c(C)cc4ccccc4c3O2)cc1 (centres unmarked) [Compound 34]

Assay: Aging promotion testing: sunlight 30 min / fading one hour cycles, 10 days (durability, coloring degree)
Format: physicochemical
Details: YI(10)-YI(0), single chromene compound in polymer, 10 days aging; Table 5
Experimental: In order to promote the aging, furthermore, the following testing was conducted. That is, the obtained photochromic polymer was irradiated with sunlight for 30 minutes to develop color, and its color was permitted to fade for one hour in the light of a fluorescent lamp. This cycle was repeated three times a day for a total of 10 days.
The photochromic properties before and after aged were evaluated by evaluating the color densities before and after aged. The initial color density (T0) and the color density (T30) ten days after the aging promotion testing were measured, and the durability was expressed as described below.
Furthermore, the coloring degrees of before developing color were measured before and after aged by using a color difference meter (SM-4) manufactured by Suga Shikenki Co.
7 Coloring degree before being aged=YI(0).
8 Change in the coloring degree (ΔYI)=YI(10)-YI(0)
YI(10): coloring degree after aged
as §1, §2, §3, §4
The obtained polymer (2 mm thick) was caused to develop color outdoors, and tones of the developed color were observed by eyes 30 seconds and 15 minutes after it was brought to the outdoors, and uniformity in the step of developing color was evaluated. […] Furthermore, the aging promoting testing was conducted in the same manner as in Example 42 to find a coloring degree (YI(0)) before aged and a change in the coloring degree (ΔY).

Compound	Change in the coloring degree ΔYI
COc1ccc(C2(c3ccc(OC)c(F)c3)C=Cc3c(C)cc4ccccc4c3O2)cc1F [Compound 27]	2.3
CCOc1ccc(C2(c3ccc(OCC)cc3)C=Cc3c(C)cc4ccccc4c3O2)cc1 [Compound 29]	2.4
COc1ccc(C2(c3ccco3)C=Cc3c(C)cc4ccccc4c3O2)cc1F (centres unmarked) [Compound 31]	3.0
COc1ccc(C2(c3ccc(OC)cc3)C=Cc3c(C)cc4c(OC)cccc4c3O2)cc1 [Compound 33]	2.2
CCCc1cc2ccccc2c2c1C=CC(c1ccc(OC)cc1)(c1ccc(OC)cc1)O2 [Compound 35]	2.3
COc1ccc(C2(c3ccc(OC)cc3)C=Cc3c(C)cc4ccc(C)cc4c3O2)cc1 [Compound 36]	2.3
COc1ccc(C2(c3ccc(OC)cc3)C=Cc3c(C)cc4cc(-c5ccccc5)ccc4c3O2)cc1 [Compound 37]	2.5
CCCCc1cc2cccc(Br)c2c2c1C=CC(c1ccc(OC)c(F)c1)(c1ccc(OC)c(F)c1)O2 [Compound 38]	2.8
CCOc1ccc(C2(c3ccc(OC)cc3)C=Cc3c(CC)cc4c(Cc5ccccc5)cccc4c3O2)cc1 (centres unmarked) [Compound 39]	2.5

Results, then the molecule that gave them:

Change in the coloring degree ΔYI	Compound
2.5	CCc1cc2ccccc2c2c1C=CC(c1ccc(OC)cc1)(c1ccc(OC)cc1)O2 [Compound 28]
2.4	COc1ccc(C2(c3ccc(OC(F)(F)F)cc3)C=Cc3c(C)cc4ccccc4c3O2)cc1 (centres unmarked) [Compound 30]
2.7	COc1ccc(C2(c3cccs3)C=Cc3c(C)cc4ccccc4c3O2)cc1 (centres unmarked) [Compound 32]
2.4	COc1ccc(C2(c3ccc(OC)c(F)c3)C=Cc3c(C)cc4ccccc4c3O2)cc1 (centres unmarked) [Compound 34]

Same assay, conditions: single chromene compound in polymer, 10 days aging; Table 5

Compound	Light resistance (durability) [%]
COc1ccc(C2(c3ccc(OC)c(F)c3)C=Cc3c(C)cc4ccccc4c3O2)cc1F [Compound 27]	99
CCOc1ccc(C2(c3ccc(OCC)cc3)C=Cc3c(C)cc4ccccc4c3O2)cc1 [Compound 29]	98
COc1ccc(C2(c3ccco3)C=Cc3c(C)cc4ccccc4c3O2)cc1F (centres unmarked) [Compound 31]	95
COc1ccc(C2(c3ccc(OC)cc3)C=Cc3c(C)cc4c(OC)cccc4c3O2)cc1 [Compound 33]	98
CCCc1cc2ccccc2c2c1C=CC(c1ccc(OC)cc1)(c1ccc(OC)cc1)O2 [Compound 35]	98
COc1ccc(C2(c3ccc(OC)cc3)C=Cc3c(C)cc4ccc(C)cc4c3O2)cc1 [Compound 36]	98
COc1ccc(C2(c3ccc(OC)cc3)C=Cc3c(C)cc4cc(-c5ccccc5)ccc4c3O2)cc1 [Compound 37]	97
CCCCc1cc2cccc(Br)c2c2c1C=CC(c1ccc(OC)c(F)c1)(c1ccc(OC)c(F)c1)O2 [Compound 38]	96
CCOc1ccc(C2(c3ccc(OC)cc3)C=Cc3c(CC)cc4c(Cc5ccccc5)cccc4c3O2)cc1 (centres unmarked) [Compound 39]	96

The next lines start with the values.

Light resistance (durability) [%]	Compound
96	CCc1cc2ccccc2c2c1C=CC(c1ccc(OC)cc1)(c1ccc(OC)cc1)O2 [Compound 28]
97	COc1ccc(C2(c3ccc(OC(F)(F)F)cc3)C=Cc3c(C)cc4ccccc4c3O2)cc1 (centres unmarked) [Compound 30]
96	COc1ccc(C2(c3cccs3)C=Cc3c(C)cc4ccccc4c3O2)cc1 (centres unmarked) [Compound 32]
97	COc1ccc(C2(c3ccc(OC)c(F)c3)C=Cc3c(C)cc4ccccc4c3O2)cc1 (centres unmarked) [Compound 34]

— patent publication US6197225A, “Chromene compound” (Tokuyama Corporation, priority 1997, dated 2001)
